Here are results for one molecule from US20090068150A1, “LACTIC ACID BACTERIA CULTURE OF MUNG BEAN AND THE PREPARATION METHOD OF THE SAME, AND THE COSMETIC COMPOSITION COMPRISING THE SAME” (Doosan Corporation, priority 2005, published 2009).

For assay [1], the system named is skin. The following applies: applied to the skin; cited from earlier work.
The subject of assay [2] is CD-1 mouse. In words: Inflammation (skin stimulus) alleviating effect on TPA-induced ear inflammation. In kind it is in vivo. The protocol:
In order to examine the inflammation (skin stimulus) alleviating effect of the lactic acid bacteria culture of mung bean containing the mung bean extract and GABA, which was obtained in the embodiment 2, a following test was conducted according to a method used by Sheu et al. (The Journal of Investigative Dermatology, 118, pp 94-101, 2002).
First, CD-1 mouse (male & female, 6-8 weeks, Charles River, USA) were used as test objects, and as stimulus material, 10 μl of TPA (12-O-tetradecanonylphorbol-13-acetate) 0.03% (wt/vol. in acetone) solution was applied to inside and outside of both ears of the test animals. Due to the treatment material, the ear was thickened and there occurred an inflammatory reaction. After that, as a positive control group, clofibrate (1 mM) and Wy14643 (1 mM) which are agonists of PPAR CL (Sheu et al., The Journal of Investigative Dermatology, 118, pp 94-101, 2002), and as a test material, the lactic acid bacteria culture of mung bean in the embodiment 2 were applied to the both surfaces of the ears in an amount of […], respectively, at 45 minutes and 4 hours after the inflammation induction.

Regarding `Cc1cccc(Nc2cc(Cl)nc(SCC(=O)O)n2)c1C` [WY14643], the “skin inflammation due to stimulus materials after application to the skin” value in assay [1] is given as “the inflammation due to stimulus materials is decreased”. Also, in assay [2] (TPA + WY14643 (1 mM), applied 45 minutes and 4 hours after induction), the “ear swelling vs control group treated with TPA only (FIG. 4)” value is listed as “the swelling was decreased”. Also, in assay [2] (positive controls 1 mM (group C Wy14643, group B clofibrate), vs TPA only), the “inflammation alleviation, H&E dyed tissue slide (FIG. 5)” value is reported as “the inflammation was also alleviated”.
